Measured values as given in patent publication US10744087B2, “Method to slow ventricular rate” (InCarda Therapeutics, Inc., priority 2018, dated 2020).
Structures can show the parent of a compound that is named as a salt. Where two headings read alike, the source gives them in different places. Each block holds one compound with its values, some of them ahead of it.

Experiments:
[1] = tested on: pig models of induced atrial fibrillation; assay: Intratracheal metoprolol in pig model of acetylcholine/burst-pacing induced atrial fibrillation (Example 5): AF duration, PR interval, dominant frequency, ventricular rate; assay type: in vivo, male Yorkshire pigs; conditions: for reduction of ventricular rate during AF: IT metoprolol 0.2 mg/kg vs baseline AF with sterile water
Protocol: Experiments described herein (e.g., Examples 5-7) complied with the National Institutes of Health Guide for the Care and Use of Laboratory Animals as well as the Declaration of Helsinki. The protocol was approved by the institutional animal use committee of Beth Israel Deaconess Medical Center (Boston Mass.). The investigations were conducted in male Yorkshire pigs weighing 46±1.8 kg. The animals were preanesthetized with telazol (4.7 mg/kg, intramuscular) and subsequently were further anesthetized using alpha-chloralose (80-mg/kg IV bolus followed by 24-mg/kg/h continuous IV infusion). The pigs were intubated and ventilated at a constant rate of 12 breaths/min and tidal volume of 400 ml per stroke. The catheters were positioned under fluoroscopic control. Electrograms were recorded from a decapolar electrode catheter positioned in the LV. Mean arterial pressure (MAP) was continuously recorded from a femoral arterial sheath. LV blood pressure was continuously monitored from a pigtail catheter. A catheter was introduced into the pericardial space via the right atrial appendage for delivery of intrapericardial acetylcholine. Atrial pacing at 160 beats/min was accomplished by delivering electrical stimuli to the right atrial catheter electrodes. Electrograms were monitored using a Prucka CardioLab workstation (GE Medical Systems, Milwaukee Wis.) from atrial and ventricular sites. For intratracheal instillation of metoprolol solution or sterile water, a 5 Fr angiography catheter was introduced into the trachea via the endotracheal tube, extending ˜1 cm past the tube, and its tip was positioned under fluoroscopy at the tracheal carina level. Metoprolol solutions of 0.2 mg/kg for intratracheal instillation were prepared by dilution of stock solution of 15.3 mg/ml in saline, originally obtained from metoprolol in powder form by dilution in dimethyl sulfoxide (DMSO). Plasma samples were analyzed using a high-performance liquid chromatography tandem mass spectrometric assay at Climax Laboratories, Inc. (San Jose Calif.). AF was induced with 1 mL of a 102.5 mM solution of acetylcholine bolus delivered through the pericardial catheter, followed by saline flush (2 mL). Burst pacing at a cycle length of 178 ms was performed at 1 minute after intrapericardial administration of ACh. After AF initiation, lavage was carried out with 20 ml of saline. For the intratracheal instillation of metoprolol (2 ml of 0.2 mg/kg concentration followed by 3 ml of air in a 5 ml syringe), the agent was administered in a single “push” via the modified angiography catheter positioned in the endotracheal tube at the beginning of the inspiration phase after two minutes of consolidated atrial fibrillation. Sterile water (2 ml) was used as a placebo for intratracheal instillation in the baseline AF. A washout period of 30 to 60 min was allowed between inductions of each occurrence of AF. AF duration was compared starting at 2 min after AF was induced, when the IT instillation was administered. The average ventricular rate for each AF was obtained by the mean of six measurements of ventricular rate performed each 30 seconds between the IT delivery (sterile water or metoprolol instillation) and the AF conversion to sinus rhythm. Contractility (LV dP/dt) and MAP were recorded during atrial pacing at 160 beats/min before AF was induced and after it was terminated. Statistical analyses were performed using the SAS system (version 9.4) to apply ANOVA with post-hoc Dunnett's test for each time point. Data are reported as means±SEM. Statistical significance was assumed at p<0.05.

[2] = tested on: pig models of induced atrial fibrillation; assay: Left ventricular contractility (LV dP/dt) and mean arterial pressure before and after AF, atrial pacing 160 beats/min (Example 5); assay type: in vivo, male Yorkshire pigs; conditions: IT metoprolol 0.2 mg/kg
Protocol: The catheters were positioned under fluoroscopic control. Electrograms were recorded from a decapolar electrode catheter positioned in the LV. Mean arterial pressure (MAP) was continuously recorded from a femoral arterial sheath. LV blood pressure was continuously monitored from a pigtail catheter. A catheter was introduced into the pericardial space via the right atrial appendage for delivery of intrapericardial acetylcholine. Atrial pacing at 160 beats/min was accomplished by delivering electrical stimuli to the right atrial catheter electrodes. Electrograms were monitored using a Prucka CardioLab workstation (GE Medical Systems, Milwaukee Wis.) from atrial and ventricular sites. For intratracheal instillation of metoprolol solution or sterile water, a 5 Fr angiography catheter was introduced into the trachea via the endotracheal tube, extending ˜1 cm past the tube, and its tip was positioned under fluoroscopy at the tracheal carina level. AF duration was compared starting at 2 min after AF was induced, when the IT instillation was administered. The average ventricular rate for each AF was obtained by the mean of six measurements of ventricular rate performed each 30 seconds between the IT delivery (sterile water or metoprolol instillation) and the AF conversion to sinus rhythm. Contractility (LV dP/dt) and MAP were recorded during atrial pacing at 160 beats/min before AF was induced and after it was terminated. Statistical analyses were performed using the SAS system (version 9.4) to apply ANOVA with post-hoc Dunnett's test for each time point. Data are reported as means±SEM. Statistical significance was assumed at p<0.05.

[3] = tested on: pig models with induced atrial fibrillation; assay: Intratracheal nebivolol or metoprolol, alone or combined with flecainide, in pig models with induced atrial fibrillation (Example 6); assay type: in vivo, male Yorkshire pigs
Protocol: The investigations were conducted in male Yorkshire pigs. The animals were preanesthetized with telazol (4.7 mg/kg, intramuscular) and subsequently were further anesthetized using alpha-chloralose (80-mg/kg IV bolus followed by 24-mg/kg/h continuous IV infusion). The pigs were intubated and ventilated at a constant rate of 12 breaths/min and tidal volume of 400 ml per stroke.
The catheters were positioned under fluoroscopic control. Electrograms were recorded from a decapolar electrode catheter positioned in the LV. Mean arterial pressure (MAP) was continuously recorded from a femoral arterial sheath. LV blood pressure was continuously monitored from a pigtail catheter. A catheter was introduced into the pericardial space via the right atrial appendage for delivery of intrapericardial acetylcholine. Atrial pacing at 160 beats/min was accomplished by delivering electrical stimuli to the right atrial catheter electrodes. Electrograms were monitored using a Prucka CardioLab workstation (GE Medical Systems, Milwaukee Wis.) from atrial and ventricular sites. For intratracheal instillation of metoprolol solution or sterile water, a 5 Fr angiography catheter was introduced into the trachea via the endotracheal tube, extending ˜1 cm past the tube, and its tip was positioned under fluoroscopy at the tracheal carina level.
Metoprolol obtained in powder form was used to prepare a stock solution of 15.3 mg/ml by dissolving the drug in 100% dimethyl sulfoxide (DMSO). A volume was withdrawn from the stock solution to achieve a 2 mg/kg IT dose and was supplemented with sterile water to attain a 2 ml total volume for bolus injection.
For Nebivolol (racemic mixtures of d- and l-nebivolol), a stock solution of 25 mg/ml was prepared by dissolving the drug in 100% DMSO. The dose was 0.3 mg/kg for intratracheal instillation. The corresponding volume was withdrawn from the stock solution based on body weight of the pig, and the allocated volume was completed with sterile water to attain 2 ml total volume. The administration was made with a 5 cc syringe with 2 ml of 0.3 mg/kg nebivolol solution and 3 ml of air.
AF was induced with 1 mL of a 102.5 mM solution of acetylcholine bolus delivered through the pericardial catheter, followed by saline flush (2 mL). Burst pacing at a cycle length of 178 ms was performed at 1 minute after intrapericardial administration of ACh. After AF initiation, lavage was carried out with 20 mL of saline.
For the intratracheal instillation of metoprolol (0.2 mg/kg or 0.4 mg/kg), nebivolol (0.3 mg/kg), flecainide (0.75 mg/kg), or cocktail of metoprolol and flecainide (0.2 mg/kg and 0.75 mg/kg, respectively), the drug agent was administered in 2 mL total volume in a single “push” of 2-3 seconds, followed by 3 ml of air in a 5 ml syringe, via the […] Sterile water (2 ml) was used as a placebo for intratracheal instillation in the baseline AF. A washout period of 30 to 60 min was allowed between inductions of each occurrence of AF.
AF duration was compared starting at 2 min after AF was induced, when the IT instillation was administered. The average ventricular rate for each AF was obtained by the mean of six measurements of ventricular rate performed each 30 seconds between the IT delivery (sterile water or metoprolol instillation) and the AF conversion to sinus rhythm.
For the study of nebivolol, in 2 of the 4 animals that were tested, at 60 min following nebivolol administration, flecainide was administered to test the effect of combined use of nebivolol and flecainide. For the study of metoprolol, given that metoprolol can have a short half-life in vivo, the effect of combined use of metoprolol and flecainide was tested by giving a second IT dose of metoprolol-flecainide cocktail 60 min following the first IT dose of metoprolol in the animals.

animal models of AF = assay: Intratracheal co-delivery of metoprolol and flecainide in pig AF models (Example 7); assay type: in vivo, male Yorkshire pigs
Protocol: Experimental animal models of AF (male Yorkshire pigs), and study reagents (metoprolol and flecainide) were prepared according to similar procedures described in Examples 5 and 6. In this example, the animals received IT administration of either metoprolol alone (0.2 mg/kg or 0.4 mg/kg), a cocktail of metoprolol and flecainide (0.2 mg/kg and 0.75 mg/kg, respectively, or 0.4 mg/kg and 0.75 mg/kg, respectively), or flecainide alone (0.75 mg/kg).

atrial arrhythmia = conditions: intravenous, 5 to 15 mg bolus doses; cited from earlier work
[4] = cited from earlier work
[5] = tested on: new onset atrial fibrillation or flutter; conditions: esmolol-treated patients with new onset atrial fibrillation or flutter; cited from earlier work
atrial fibrillation = conditions: given in oral pills; several studies (Ferreira 1997 review); cited from earlier work
[6] = AF induced 30 min after IT nebivolol 0.3 mg/kg

- MAP after AF ([2]; before AF 125±4.3, p=0.26, pacing 160 beats/min): 118±4.0
- contractility (LV dP/dt) after AF conversion ([2]; before AF 2337±252.7, pacing 160 beats/min): 1951±277.9
- change in MAP ([2]; before vs after AF): no significant changes
- reduction in contractility (LV dP/dt) after conversion ([2]; pacing 160 beats/min, p=0.006, not different from AF baseline reduction (p=0.85)): 17.5±4.0%
Compound: COCCc1ccc(OCC(O)CNC(C)C)cc1 (racemic) [metoprolol, (±) 1-(isopropylamino)-3-[p-(2-methoxyethyl)phenoxy]-2-propanol]
- occurrence of atrial flutter during conversion ([1]; IT metoprolol 0.2 mg/kg): In none of the animals did atrial flutter occur
- reduction of ventricular rate during AF [1]: 12±2.6%
- reduction of ventricular rate during AF ([1]; p=0.007): 32 beats/min
- reduction of AF dominant frequency ([1]; IT metoprolol 0.2 mg/kg vs baseline AF, p=0.04): 31%
- shortening of the AF duration ([1]; IT metoprolol 0.2 mg/kg vs placebo baseline AF (sterile water IT), p=0.018): 20.4±4.9%
- AF dominant frequency ([1]; IT metoprolol 0.2 mg/kg, baseline AF 8.7±0.94): 6±1.1 Hz
- ventricular rate during AF ([1]; IT metoprolol 0.2 mg/kg, baseline AF 272±13.7): 240±12.6 beats/min
- AF duration ([1]; IT metoprolol 0.2 mg/kg, placebo baseline 10.3±2.0, mean±SEM): 8.0 ± 1.5 min
- PR interval ([1]; metoprolol 0.2 mg/kg bolus IT, from 174±11.2, p=0.07): 182 ± 11.4 ms
- increase in PR interval ([1]; metoprolol 0.2 mg/kg bolus IT, trend, p=0.07): 4%
- reduction of ventricular rate during AF ([3]; AF 30 min after IT metoprolol 0.2 mg/kg): moderate
- shortening of the AF duration ([3]; AF induced 30 min after IT metoprolol 0.2 mg/kg): about 36%
- shortening of the AF duration ([3]; AF induced right after IT metoprolol 0.2 mg/kg alone, vs placebo baseline AF): about 28%
- reduction in ventricular rate during AF ([3]; AF induced right after IT metoprolol 0.2 mg/kg, vs baseline AF): about 13%
- reduction in the AF duration (animal models of AF; IT 0.2 mg/kg metoprolol alone): about 20%
- reduction in the average ventricular rate during the AF conversion (animal models of AF; IT 0.2 mg/kg metoprolol alone): about 10%
- reduction in the AF duration (animal models of AF; IT 0.4 mg/kg metoprolol alone): about 27%
- reduction in the average ventricular rate during the AF conversion (animal models of AF; IT 0.4 mg/kg metoprolol alone): about 10%
- conversion rate of atrial arrhythmia (atrial arrhythmia): 13%
- patients with rate reduced at least 25% or to less than 100 bpm (atrial arrhythmia): 68%

Compound: OC(CNCC(O)C1CCc2cc(F)ccc2O1)C1CCc2cc(F)ccc2O1 (racemic) [nebivolol, 2,2′-Azanediylbis(1-(6-fluorochroman-2-yl)ethanol)]
- reduction in ventricular rate during AF [3, 6]: about 22%
- shortening of the AF duration [3, 6]: about 33%
- reduction in ventricular rate during AF ([3]; AF induced right after IT nebivolol 0.3 mg/kg): about 10%
- shortening of the AF duration ([3]; IT nebivolol 0.3 mg/kg, administered right before the AF induction, vs placebo baseline AF): about 24%
- water solubility ([4]; water): low water solubility

Compound: OC(CNCC(O)C1CCc2cc(F)ccc2O1)C1CCc2cc(F)ccc2O1 (centres unmarked) [Nebivolol hydrochloride]
- solubility ([4]; in ethanol, propylene glycol, and polyethylene glycol): sparingly soluble
- solubility ([4]; in hexane, dichloromethane, and methylbenzene): very slightly soluble
- solubility ([4]; in methanol, dimethylsulfoxide, and N,N-dimethylformamide): soluble

Compound: COC(=O)CCc1ccc(OCC(O)CNC(C)C)cc1 (centres unmarked) [esmolol]
- patients converted to sinus rhythm [5]: about 50%

Compound: O=C(NCC1CCCCN1)c1cc(OCC(F)(F)F)ccc1OCC(F)(F)F (centres unmarked) [flecainide]
- reduction in the average ventricular rate during AF (animal models of AF; IT 0.75 mg/kg flecainide alone): about 10%

Compound: CC(C)NCC(O)c1ccc(NS(C)(=O)=O)cc1 (centres unmarked) [soltalol]
- efficacy for acute conversion of atrial fibrillation to normal sinus rhythm (atrial fibrillation): 8-49%
